From PubChem BioAssay AID2060618 (Molecular Pharmacology Branch, DTP, NCI, 2025)
Several values for one entry are separate records, joined by “and”; a condition that tells them apart may be missing. Identical values can stand only once.

Test system: 454973-116-R2-J3-PDC spheroids, percent test/control viability
Assay: Anticancer human tumor 454973-116-R2-J3-PDC patient-derived pancreatic carcinoma cell line growth inhibition [CLK]
Conditions: spheroids with HUVEC and MSC; for viability, T/C: stronger effect = lower value
Text: A high-throughput screen of multi-cell type tumor spheroids was designed to identify active combinations of […] and targeted small molecules. Complex spheroids include a stromal component modeled by human endothelial cells (HUVEC) and fibroblasts modeled by human mesenchymal stem cells (MSCs). The concentration ranges selected for each drug and investigational agent were based upon clinically achievable concentrations if the clinical Cmax of the agent was known.
Compounds. The drugs and investigational agents: cirtuvivint (SM08502; NSC835563), CC-671 (NSC850746), vemurafenib (NSC761431), tapotoclax (NSC804041), sotorasib (NSC818433), adagrasib (NSC831453), MRTX-1133 (NSC836407), BAY2416964 (NSC825713), copanlisib (NSC816437), inavolisib (NSC800729), abemaciclib (NSC768073), osimertinib (NSC779217), entinostat (NSC756642), eltanexor (KPT-8602, NSC794443), venetoclax (NSC766270), ceralasertib (NSC777638), bortezomib (NSC756655), olaparib (NSC753686), talazoparib (NSC767125), alisertib (NSC759677), peposertib (NSC802822), gemcitabine (NSC613327), 5-fluorouracil (NSC19893), SN-38 (NSC673596), oxaliplatin (NSC266046), paclitaxel (NSC125973), and doxorubicin (NSC123127), were obtained from the National Cancer Institute (NCI) Developmental Therapeutics Program Chemical Repository. The FDA-approved anticancer drug set is available from the Developmental Therapeutics Program at https://dtp.cancer.gov/organization/dscb/obtaining/available plates.htm. […] The stock solutions were prepared in dimethyl sulfoxide (DMSO, Sigma-Aldrich, St. Louis, MO, cat. D2650), except for the platinum complexes which were prepared in saline (Quality Biological, Gaithersburg, MD, cat. 114-055-101), at 800-fold the tested concentration and stored at -70 degrees C prior to their use. All drugs and investigational agents were tested over a range starting from a high concentration at or near the clinical Cmax and decreasing in half-log increments. If the clinical Cmax for an agent had not been determined, the highest concentration tested was 10 microM.
Cell Culture. All cells were maintained in an incubator at 37 degrees C and 5% CO2 with 95% humidity. The PDC lines were cultured according to standard operating procedures established by the NCI PDMR. Briefly, all PDCs were thawed and cultured in Matrigel-coated flasks prepared with a working solution of 1X Ham's F-12 nutrient mix, without supplementation (Invitrogen, Waltham, MA, cat. 11765054), 100 U/mL penicillin-streptomycin (Invitrogen, cat. 15140122), and 2.5% Matrigel (Corning Inc., Corning, NY, cat. 354248) for the first three passages. The 947758-054-R-J2-PDC line was cultured in 6B/Colon 1A media, which includes advanced DMEM/F-12 (Thermo Fisher Scientific, cat. 12634028), 10 mM HEPES (Thermo Fisher Scientific, cat. 15630080), 1X GlutaMAX supplement (Thermo Fisher Scientific, cat. 35050061), 0.1 mg/mL primocin (InvivoGen, cat. ant-pm-2), 10% defined fetal bovine serum, heat inactivated (HyClone Laboratories Inc., cat. SH30070.03HI), 1.25 mM N-Acetyl-L-cysteine (Sigma-Aldrich, cat. A9165), 10 mM nicotinamide (Sigma-Aldrich, cat. N0636), 1X B-27 supplement (Thermo Fisher Scientific, cat. 17504044), 1X N-2 supplement (Thermo Fisher Scientific, cat. 17502048), and 10 microM Y-27632 dihydrochloride (Tocris Bioscience, cat. 1254). The 876862-298-R-J1-PDC was cultured in 6E media, which includes all 6B/Colon 1A media components plus 50% L-WRN conditioned media (ATCC, cat. CRL-3276), 50 ng/mL recombinant human EGF recombinant protein (hEGF; Thermo Fisher Scientific, cat. PHG0311), 10 ng/mL recombinant human fibroblast growth factor 10 (hGFG-10; PeproTech, cat. 100-26), 1 ng/mL recombinant human fibroblast growth factor 2 (hFGF-2; PeproTech, cat. 100-18B), and 1 µM prostaglandin E2 (PGE2; Tocris, cat. 2296). The 227483-062-R1-J1-PDC line was cultured in Panc media, containing all 6E components except hFGF-2, with the addition of 500 nM SB-431542 (Selleckchem, cat. S1067) and 10 nM gastrin (Tocris, cat. 3006). […]
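Also: spheroids exposed to compounds for 7 days before readout.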

| IC50 (curve of compound) | SMILES | viability, T/C (compound 0.0316 µM) | viability, T/C (compound 0.1 µM) | viability, T/C (compound 0.316 µM) | viability, T/C (compound 1 µM) | viability, T/C (compound 3.16 µM) | viability, T/C (compound 10 µM) | other results |
| --- | --- | --- | --- | --- | --- | --- | --- | --- |
| 0.0558 µM and 0.0435 µM | C#Cc1c(F)ccc2cc(O)cc(-c3ncc4c(N5CC6CCC(C5)N6)nc(OCC56CCCN5CC(F)C6)nc4c3F)c12 (stereo not given) | 57% and 54.6% | 43.1% and 39.1% | 33.8% and 39.8% | 29.4% and 31.3% | 30.1% and 29.4% | 22.2% and 18.5% |  |
| 5.77 µM and 5.78 µM | C=C(F)C(=O)N1CCN(c2nc(OCC3CCCN3C)nc3c2CCN(c2cccc4cccc(Cl)c24)C3)CC1CC#N (stereo not given) | 105% and 106% | 102% and 107% | 110% and 114% | 93.8% and 109% | 104% and 105% | 1.39% and 0.39% |  |
| > 10 µM | C=CC(=O)N1CCN(c2nc(=O)n(-c3c(C)ccnc3C(C)C)c3nc(-c4c(O)cccc4F)c(F)cc23)C(C)C1 (stereo not given) | 107% and 99.3% | 107% and 106% | 107% and 105% | 110% and 97.4% | 124% and 116% | 124% and 118% |  |
| > 0.3 µM | C=CC(=O)Nc1cc(Nc2nccc(-c3cn(C)c4ccccc34)n2)c(OC)cc1N(C)CCN(C)C |  |  |  |  |  |  | viability, T/C (compound 0.000949 µM): 104% and 111%; viability, T/C (compound 0.003 µM): 107% and 98.9%; viability, T/C (compound 0.00949 µM): 97.8% and 95%; viability, T/C (compound 0.03 µM): 105% and 108%; viability, T/C (compound 0.0949 µM): 115% and 111%; viability, T/C (compound 0.3 µM): 109% and 100% |
| 0.00288 µM and 0.00231 µM | CC(C)CC(NC(=O)C(Cc1ccccc1)NC(=O)c1cnccn1)B(O)O (stereo not given) |  |  |  |  |  |  | viability, T/C (compound 0.000949 µM): 106% and 104%; viability, T/C (compound 0.003 µM): 47.9% and 34.1%; viability, T/C (compound 0.00949 µM): 0.32% and 0.38%; viability, T/C (compound 0.03 µM): 0.21% and 1.51%; viability, T/C (compound 0.0949 µM): 0.12% and 2.95%; viability, T/C (compound 0.3 µM): 0.11% and 1.42% |
| > 10 µM | CC(CO)NC(=O)c1cc(-c2ccc(Cl)cc2)nn(-c2cnn(C)c2)c1=O (stereo not given) | 112% and 99.4% | 106% and 92.4% | 114% and 111% | 99.3% and 107% | 103% and 109% | 71.3% and 79% |  |
| > 10 µM and 8.31 µM | CC(Nc1ccc2c(c1)OCCn1cc(N3C(=O)OCC3C(F)F)nc1-2)C(N)=O (stereo not given) | 98.3% and 101% | 95.5% and 92.3% | 99.5% and 84% | 84.7% and 86.1% | 78.1% and 71% | 54.1% and 45% |  |
| 7.15 µM and 6.67 µM | CC1(C)CCC(CN2CCN(c3ccc(C(=O)NS(=O)(=O)c4ccc(NCC5CCOCC5)c([N+](=O)[O-])c4)c(Oc4cnc5[nH]ccc5c4)c3)CC2)=C(c2ccc(Cl)cc2)C1 | 101% and 99.6% | 102% and 95.9% | 113% and 106% | 106% and 102% | 119% and 111% | 25.8% and 21.3% |  |
| 7.77 µM and 7.34 µM | CC1COCCN1c1cc(C2(S(C)(=N)=O)CC2)nc(-c2ccnc3[nH]ccc23)n1 (stereo not given) | 109% and 101% | 109% and 97.7% | 104% and 102% | 101% and 98% | 91.1% and 87.8% | 38.4% and 36.1% |  |
| 8.3 µM and 6.87 µM | CCCS(=O)(=O)Nc1ccc(F)c(C(=O)c2c[nH]c3ncc(-c4ccc(Cl)cc4)cc23)c1F | 99.6% and 110% | 103% and 101% | 112% and 105% | 102% and 103% | 108% and 101% | 39.4% and 25.2% |  |
| > 1 µM | CCN1CCN(Cc2ccc(Nc3ncc(F)c(-c4cc(F)c5nc(C)n(C(C)C)c5c4)n3)nc2)CC1 | 89.6% and 75.1% | 75.3% and 70.8% | 60.3% and 65% | 62.7% and 64.3% |  |  | viability, T/C (compound 0.00316 µM): 95.9% and 106%; viability, T/C (compound 0.01 µM): 99.1% and 87.2% |
| < 0.00316 µM | CCc1c2c(nc3ccc(O)cc13)-c1cc3c(c(=O)n1C2)COC(=O)[C@]3(O)CC | 12% and 13% | 6.22% and 7.38% | 2.81% and 3.92% | 1.02% and 3.21% |  |  | viability, T/C (compound 0.00316 µM): 39.9% and 31.5%; viability, T/C (compound 0.01 µM): 15.9% and 14.3% |
|  | CN1CCN(c2cc(C(=O)Nc3cc4cc(-c5cnn(C)c5)ccc4cn3)ccn2)CC1 | 102% [middle of 12 runs] | 81.8% [middle of 12 runs] | 2.31% [middle of 11 runs] | 0.41% [middle of 10 runs] | 0.23% [middle of 9 runs] | 0.25% [middle of 10 runs] | IC50 (compound alone, run of 09/18/2023): 159 nM [middle of 9 runs] |
|  | CNC(=O)c1ccc(Nc2nc(OC3CCCC3)c3c(-c4ccc5nc(C)oc5c4)c[nH]c3n2)c(OC)c1 | 106% [middle of 12 runs] | 104% [middle of 12 runs] | 47.8% [middle of 12 runs] | 30.7% [middle of 12 runs] | 26.1% [middle of 12 runs] | 28.5% [middle of 11 runs] | IC50 (compound alone, run of 09/19/2023): 302 nM [middle of 12 runs] |
| 5.92 µM and 5.07 µM | COC1C=CCC(C)C(C)S(=O)(=O)NC(=O)c2ccc3c(c2)N(CC2CCC21)CC1(CCCc2cc(Cl)ccc21)CO3 (stereo not given) | 109% and 95.4% | 103% and 97.3% | 95.6% and 90.4% | 94.7% | 99.9% and 80.9% | 8.41% and 5.61% |  |
| 0.0884 µM and 0.0724 µM | COc1c(OCCCN2CCOCC2)ccc2c3n(c(=NC(=O)c4cnc(N)nc4)nc12)CCN3 | 99.2% and 75.2% | 44% and 39% | 23.6% and 20.3% | 8.06% and 7.21% |  |  | viability, T/C (compound 0.00316 µM): 97.1% and 109%; viability, T/C (compound 0.01 µM): 98.4% and 90.9% |
| > 0.1 µM | Cn1ncnc1[C@H]1c2n[nH]c(=O)c3cc(F)cc(c23)N[C@@H]1c1ccc(F)cc1 | 93.7% and 87.6% | 91.9% and 89.7% |  |  |  |  | viability, T/C (compound 0.000316 µM): 100% and 113%; viability, T/C (compound 0.001 µM): 96.3% and 104%; viability, T/C (compound 0.00316 µM): 105% and 102%; viability, T/C (compound 0.01 µM): 93.3% and 96.9% |
| 0.614 µM and 0.362 µM | NC(=O)C(=Cn1cnc(-c2cc(C(F)(F)F)cc(C(F)(F)F)c2)n1)c1cncnc1 |  |  |  |  |  |  | viability, T/C (compound 0.00949 µM): 97.3% and 100%; viability, T/C (compound 0.03 µM): 97% and 95.2%; viability, T/C (compound 0.0949 µM): 83.1% and 78.2%; viability, T/C (compound 0.3 µM): 63.3% and 48.4%; viability, T/C (compound 0.949 µM): 42.4% and 35.4%; viability, T/C (compound 3 µM): 21.7% and 10.8% |
| 1.8 µM and 1.68 µM | Nc1ccccc1NC(=O)c1ccc(CNC(=O)OCc2cccnc2)cc1 | 103% and 100% | 96.6% and 102% | 90.7% and 89.4% | 71.8% and 70.5% | 29.7% and 26.2% | 9.11% and 5.25% |  |
| > 10 µM | O=C(c1cc(Cc2n[nH]c(=O)c3ccccc23)ccc1F)N1CCN(C(=O)C2CC2)CC1 | 115% and 104% | 95.9% and 101% | 99.6% and 101% | 101% and 99.2% | 94.5% and 98.7% | 71.1% and 77.5% |  |
